Laboratory results taken from patent publication US11789012B2, “Cell death biomarker” (UCL Business PLC, priority 2016, dated 2023).

B1: FASL: cell death-inducing ligand, death receptor ligand (protein, UniProt P48023 130-281, looked up)
Tumor necrosis factor ligand …: QIGHPSPPPEKKELRKVAHLTGKSNSRSMPLEWEDTYGIVLLSGVKYKKGGLVINETGLYFVYSKVYFRGQSCNNLPLSHKVYMRNSKYPQDLVMMEGKMMSYCTTGQMWARSSYLGAVFNLTSADHLYVNVSELSLVNFEESQTFFGLYKL

What was measured:
[1] = test system: MPM cell lines; assay: Combination drug screen with rTRAIL as anchor drug; assay type: cell-based, Human; details: otherwise resistant cells; delta AUC synergy metric
Experimental: FIG. 7A is a volcano plot showing drug-genome interactions when rTRAIL was used as an anchor drug in combination with the library of 94 single agent compounds. Synergy was described using delta AUC metric. FIGS. 7B & 7C are graphs showing the effect of rTRAIL on cell viability of MPM cells in the presence of LCL161. TRAIL resistant MPM cells were treated with either 0-1000 ng/ml of TRAIL alone or a combination of 5 μM LCL161 and 0-1000 ng/ml of TRAIL for 24 hours and cell death was quantified by Annexin V/DAPI assay. FIG. 7D is a graph showing the effect of rTRAIL on cell viability of cells in the presence of the IAP inhibitor, LCL161. BAP1-transduced or BAP1 C91A-transduced H226 cells were treated either with 0-1000 ng/ml of TRAIL alone or combination of 5 μM LCL161 and 0-1000 ng/ml of TRAIL for 24 hours and cell death was quantified by Annexin V/DAPI assay.
Manual “single dose” combination screening was undertaken using 96 well formats. Cells were plated on day 1 in previously optimized seeding densities in 180 μl if media. On day 2 20 μl of a 10× concentration of […] was added. Cells were then allowed to grow for 72 hrs or 6 days and fixed at the end of the assay. Drug wells were compared to DMSO treated control wells.
Single agent high throughput 5 point viability screening was undertaken in 384 well formats using robotic liquid handling with fixing with 4% paraformaldehyde and staining for viability with Syto60 nucleic acid dye (Invitrogen) (see below).
A binary event matrix was compiled for the cell lines in the mesothelioma screen by aggregating copy number and exome data and this was used as input classifiers for genomic correlation. Data from this therapeutic screen was then analysed using a Multivariate Analysis of Variance (MANOVA) to annotate the sensitizing effect of genotype on dose response.

[2] = test system: NCI-H226; assay: Annexin V/DAPI cell death assay, H226 parental and BAP1-transduced lines; assay type: cell-based, Human; details: 100 ng/ml, 24 hours; untransduced, BAP1-expressing and catalytically dead BAP1-expressing H226
Experimental: FIG. 5A is an immunoblot for BAP1 protein in BAP1 null mesothelioma lines following transfection with empty vector and BAP1 expression vector. […] FIG. 5C is a graph showing the effect of rTRAIL on cell viability of an untransduced H226 cell line, a BAP1 (transduced) cell line, and a H226 cell line with the NLS deleted.
Untransduced BAP1-negative H226 cells, BAP1-expressing and catalytically dead BAP1-expressing H226 cells were treated with 100 ng/ml of FASL, TRAIL and TNF-alpha for 24 hours and cell death was quantified by Annexin V/DAPI assay. *p<0.05 indicating significant difference between untransduced H226 cells H226 BAP1 expressing cells. NS no significant difference between untransduced H226 cells and BAP1 C91A transduced cells. #p<0.05 indicating significant difference between untransduced H226 cells and BAP1 C91A transduced cells.
Adherent mesothelioma cell lines were plated in a 96 well plate at approximately 10000 cells per well. Cells were plated and given 1 day to adhere at which time drug was added. After 48 hrs media, including floating cells, was collected from each well. The remaining adherent cells were washed with PBS and mobilised with 0.05% trypsin in EDTA. All cells were collected into tubes containing the previously removed media and pelleted by centrifugation (300 g, 5 minutes). Cells were then re-suspended in 1× Annexin V binding buffer with 10 μl/1 ml concentration of Annexin V-647 antibody (Invitrogen) and incubated for 15 minutes at room temperature. DAPI ([…]) was then added to each sample before flow cytometry analysis as below. Annexin V−/DAPI− cells were judged to be viable, AnnexinV+/DAPI− cells were considered to be undergoing apoptosis (early apoptotic phase), and Annexin V+/DAPI+ cells were considered late apoptotic or necrotic, and recorded as dead.

| Molecule | effect on DRL-induced apoptosis in combination with rTRAIL [1] | sensitivity of H226 cells to cell death-inducing ligand, dependence on BAP1 catalytic domain [2] |
| --- | --- | --- |
| CNC(=O)c1cc(Oc2ccc(NC(=O)Nc3ccc(Cl)c(C(F)(F)F)c3)cc2)ccn1 [sorafenib] | increase the efficacy of DRL-induced apoptosis | – |
| COc1ccc(C(=O)CC2(O)C(=O)Nc3c(Cl)ccc(Cl)c32)cc1 (centres unmarked) [YK-4279] | increase the efficacy of DRL-induced apoptosis | – |
| TNFα | – | regulates the sensitivity |
| CN[C@@H](C)C(=O)N[C@H](C(=O)N1CCC[C@H]1c1nc(C(=O)c2ccc(F)cc2)cs1)C1CCCCC1 [LCL161] | increase the efficacy of DRL-induced apoptosis | – |
| B1 | – | regulates the sensitivity |
